Experimental data: paper PMC10601554 (Protein Science : A Publication of the Protein Society, 2023)

Columns and labels:
[1] = target: RBP‐N/RBP‐Trunc mixed heterodimer (first generation) (Thermotoga maritima) (UniProt Q9X053); assay: SEC-MALS; single purified proteins, and RBP‐N and RBP‐Trunc purified one by one and mixed in an equimolar ratio; Superdex 75 Increase 10/300 GL, 10 mM sodium phosphate, 50 mM sodium chloride, 0.02% sodium azide, pH 7.8, room temperature, 0.8 mL min^-1
[2] = target: T1, RBP-N/RBP-Trunc mixed heterodimer (Thermotoga maritima, UniProt Q9X053); assay: isothermal titration calorimetry; type: binding; details: 10 mM sodium phosphate, 50 mM NaCl, pH 7.8, 20°C; 100 μM protein; 1:1 model
T1 construct: gene TM_0958; separately expressed halves mixed equimolar in vitro; E. coli BL21(DE3); His tag likely; dimer of heterodimers

[3] = target: T2, RBP-NN-His/RBP-TruncIIN-Strep co-expressed heterodimer (Thermotoga maritima, UniProt Q9X053); assay: differential scanning calorimetry; type: binding; details: 10 mM sodium phosphate, 50 mM NaCl, pH 7.8; 50 μM protein, 0.5 mM ribose; irreversible unfolding; possible residual ribose carried over
T2 construct: gene TM_0958; halves co-expressed in E. coli BL21(DE3); N-terminal His6 tag on RBP-N (border also printed as 153), N-terminal Strep-tag on RBP-TruncII

[4] = target: T1, RBP-N/RBP-Trunc mixed heterodimer; assay: differential scanning calorimetry; type: binding; details: 10 mM sodium phosphate, 50 mM NaCl, pH 7.8; 50 μM protein, 0.5 mM ribose; irreversible unfolding
[5] = target: T3, RBP-NN-His/RBP-CN-Strep co-expressed heterodimer (Thermotoga maritima, UniProt Q9X053); assay: differential scanning calorimetry; type: binding; details: 10 mM sodium phosphate, 50 mM NaCl, pH 7.8; 50 μM protein, 0.5 mM ribose; irreversible unfolding
T3 construct: gene TM_0958; halves co-expressed in E. coli BL21(DE3); N-terminal His6 tag on RBP-N (border also printed as 153), N-terminal Strep-tag on RBP-C; lacks C-terminal cross-over strands; oligomeric state not determined

[6] = target: the molecule itself; assay: SEC-MALS; single purified proteins, and RBP‐N and RBP‐Trunc purified one by one and mixed in an equimolar ratio; Superdex 75 Increase 10/300 GL, 10 mM sodium phosphate, 50 mM sodium chloride, 0.02% sodium azide, pH 7.8, room temperature, 0.8 mL min^-1

T1 sequence (Q9X053 entry or part of it, one chain of several): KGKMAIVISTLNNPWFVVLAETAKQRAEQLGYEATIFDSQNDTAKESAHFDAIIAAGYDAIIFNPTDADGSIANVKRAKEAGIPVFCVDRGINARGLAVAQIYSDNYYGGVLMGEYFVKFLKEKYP
T3 sequence (Q9X053 entry or part of it, one chain of several): as above
T2 sequence (Q9X053 entry or part of it, one chain of several): as above

With “RBP‐N/RBP‐Trunc mixed heterodimer (first generation) (from UniProt Q9X053 30-153; Q9X053 142-310) (complex)” the stoichiometry N [1] was 2.

With `OC1OC[C@@H](O)[C@@H](O)[C@H]1O` (stereo partly drawn) [ribose] the Kd [2] was 6.8 ± 0.7 µM, the dTm [3] was 9.1 °C and the dTm [4] was ~ 14 °C. It also gave a dTm [5] of 15.1 °C.

B1: RBP‐Trunc (truncated T. maritima RBP, residues 142–310, first generation) (domain or fragment, Thermotoga maritima, UniProt Q9X053 142-310, looked up)
chain: MGEYFVKFLKEKYPDAKEIPYAELLGILSAQPTWDRSNGFHSVVDQYPEFKMVAQQSAEFDRDTAYKVTEQILQAHPEIKAIWCGNDAMALGAMKACEAAGRTDIYIFGFDGAEDVINAIKEGKQIVATIMQFPKLMARLAVEWADQYLRGERSFPEIVPVTVELVTRE
notes: also called RPB‐Trunc
For B1, the “stoichiometry N” value [6] was 2.
